Data taken from the NIST ThermoML archive (doi:10.1021/acs.jced.7b00712).

Conditions: Liquid, Brillouin light scattering

CCCCCCCC [octane]
Conditions | speed of sound [m/s]
296.97 K, 100 kPa | 1173
297.28 K, 4000 kPa | 1196.5
297.34 K, 7000 kPa | 1222
297.35 K, 12000 kPa | 1250.8
297.38 K, 10000 kPa | 1242.7
303.33 K, 7000 kPa | 1199.7
303.38 K, 10000 kPa | 1213.7
303.42 K, 12000 kPa | 1233
303.53 K, 4000 kPa | 1172.7
303.61 K, 100 kPa | 1151.7
318.11 K, 10000 kPa | 1164.8
318.3 K, 4000 kPa | 1121.2
318.35 K, 7000 kPa | 1141.4
318.37 K, 100 kPa | 1089.5
318.37 K, 12000 kPa | 1184.5
332.26 K, 4000 kPa | 1066.7
332.32 K, 10000 kPa | 1108.6
332.33 K, 7000 kPa | 1089.1
332.5 K, 100 kPa | 1029.1
332.56 K, 12000 kPa | 1128.3
347.29 K, 7000 kPa | 1031.9
347.37 K, 10000 kPa | 1053.4
347.4 K, 4000 kPa | 1007.2
347.46 K, 12000 kPa | 1072.7
347.68 K, 100 kPa | 970.1
362.12 K, 10000 kPa | 1006.2
362.17 K, 7000 kPa | 979.6
362.28 K, 4000 kPa | 955.4
362.53 K, 100 kPa | 912.3
363.67 K, 12000 kPa | 1027.8
377.03 K, 4000 kPa | 909.7
377.33 K, 7000 kPa | 933.5
377.35 K, 10000 kPa | 960.5
377.5 K, 100 kPa | 855.4
379.75 K, 12000 kPa | 973.9
390.8 K, 4000 kPa | 860.1
391 K, 7000 kPa | 892.3
391.09 K, 10000 kPa | 917.4
391.61 K, 100 kPa | 806.4
394.67 K, 12000 kPa | 920.8
403.71 K, 12000 kPa | 896.1
407.38 K, 4000 kPa | 802.1
407.45 K, 10000 kPa | 865.2
407.46 K, 7000 kPa | 836.9
412.59 K, 4000 kPa | 786.2
412.65 K, 7000 kPa | 818.8
412.71 K, 10000 kPa | 846.7
414.33 K, 12000 kPa | 864
422.61 K, 10000 kPa | 818.2
422.69 K, 12000 kPa | 844.3
422.73 K, 4000 kPa | 747.2
422.88 K, 7000 kPa | 784.5
431.77 K, 12000 kPa | 815.2
431.82 K, 4000 kPa | 720.1
431.88 K, 7000 kPa | 754.2
431.92 K, 10000 kPa | 789.8
442.23 K, 4000 kPa | 682.1
442.49 K, 7000 kPa | 723.8
442.65 K, 10000 kPa | 755.7
442.73 K, 12000 kPa | 779.7
452.55 K, 4000 kPa | 646.4
452.64 K, 7000 kPa | 689.9
452.77 K, 10000 kPa | 728.1
452.88 K, 12000 kPa | 750.8
462.37 K, 4000 kPa | 614.7
462.45 K, 7000 kPa | 660.1
462.61 K, 12000 kPa | 724.2
465.54 K, 10000 kPa | 695.8
472.05 K, 4000 kPa | 579.7
472.15 K, 7000 kPa | 631.6
472.28 K, 10000 kPa | 676.9
472.38 K, 12000 kPa | 693.8
482.98 K, 4000 kPa | 543
483.04 K, 7000 kPa | 599.7
483.12 K, 10000 kPa | 646.1
483.14 K, 12000 kPa | 672.7
493.41 K, 4000 kPa | 503.5
493.48 K, 7000 kPa | 565.4
493.62 K, 10000 kPa | 614.7
493.73 K, 12000 kPa | 645
502.54 K, 4000 kPa | 477.8
502.73 K, 7000 kPa | 537.1
502.95 K, 10000 kPa | 590.5
503.17 K, 12000 kPa | 616.5
513 K, 4000 kPa | 439.1
513.26 K, 7000 kPa | 506.5
513.46 K, 10000 kPa | 563.1
513.67 K, 12000 kPa | 591.5
522.92 K, 4000 kPa | 407.7
523.17 K, 12000 kPa | 570.6
523.46 K, 7000 kPa | 478.6
523.6 K, 10000 kPa | 533.3
532.23 K, 4000 kPa | 373.2
532.36 K, 7000 kPa | 450.6
532.59 K, 10000 kPa | 511.4
532.79 K, 12000 kPa | 545.1
537.4 K, 4000 kPa | 354.7
537.75 K, 7000 kPa | 436.8
538.1 K, 10000 kPa | 497.5
538.41 K, 12000 kPa | 530.4
542.87 K, 4000 kPa | 337.8
543.27 K, 12000 kPa | 520.1
543.83 K, 7000 kPa | 422
544.52 K, 10000 kPa | 483.1
546.68 K, 4000 kPa | 325.7
547.82 K, 7000 kPa | 406.8
548.6 K, 10000 kPa | 471.5
549.27 K, 12000 kPa | 505.4
550.42 K, 4000 kPa | 315.2
552.01 K, 7000 kPa | 398.1
552.52 K, 10000 kPa | 465.1
552.88 K, 12000 kPa | 500.8
557.27 K, 4000 kPa | 290.5
558.19 K, 7000 kPa | 380.2
558.64 K, 10000 kPa | 448
559.37 K, 12000 kPa | 486.2
561.2 K, 4000 kPa | 276.7
561.87 K, 7000 kPa | 372.6
562.27 K, 10000 kPa | 441.3
562.71 K, 12000 kPa | 477.8
566.82 K, 7000 kPa | 356.5
566.96 K, 10000 kPa | 430.4
567.01 K, 4000 kPa | 257.3
567.1 K, 12000 kPa | 471
570.16 K, 4000 kPa | 245.6
570.2 K, 7000 kPa | 347.6
570.48 K, 10000 kPa | 424
570.75 K, 12000 kPa | 461
